From US20020039778A1, “Isolated and purified DNA molecule and protein for the degradation of triazine compounds” (Regents of the University of Minnesota, priority 1995, published 2002)

What was measured:
[1] = target: T1, N-ethylammeline chlorohydrolase (TrzA) (Gordonia rubripertincta, UniProt Q52725); conditions: cited from earlier work
T1 sequence (Q52725 1-477): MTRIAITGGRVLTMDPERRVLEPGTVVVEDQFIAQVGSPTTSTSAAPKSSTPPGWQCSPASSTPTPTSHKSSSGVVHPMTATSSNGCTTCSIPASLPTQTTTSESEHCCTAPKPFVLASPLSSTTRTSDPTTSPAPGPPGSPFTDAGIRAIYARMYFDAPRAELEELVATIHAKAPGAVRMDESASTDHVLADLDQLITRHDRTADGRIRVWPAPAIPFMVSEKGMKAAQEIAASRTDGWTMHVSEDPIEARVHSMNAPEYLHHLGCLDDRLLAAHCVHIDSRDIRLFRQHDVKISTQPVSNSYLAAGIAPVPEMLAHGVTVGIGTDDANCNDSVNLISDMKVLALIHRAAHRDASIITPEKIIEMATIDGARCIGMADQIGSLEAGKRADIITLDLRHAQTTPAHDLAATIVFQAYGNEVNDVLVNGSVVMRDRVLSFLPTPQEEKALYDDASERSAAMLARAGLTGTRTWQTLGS

[2] = target: T2, atrazine chlorohydrolase (AtzA) (Pseudomonas sp., UniProt P72156); experiment: Substrate range of purified AtzA in vitro; assay type: biochemical, Pseudomonas sp. strain ADP; parameters: made in house; host or cells: E. coli transformed with pMD4 (1.9-kb AvaI genomic fragment in pACYC184); conditions: purified enzyme in vitro
Procedure: High performance liquid chromatography (HPLC) analysis was performed using a Hewlett-Packard HP 1090 Liquid Chromatograph system equipped with a photodiode array detector and interfaced to an HP 79994A Chemstation. […] Linear gradients of 0-6 minutes, 10-25% acetonitrile (ACN); 6-21 minutes, 25-65% ACN; 21-23 minutes, 65-100% ACN; and 23-25 minutes 100% ACN, were used. Spectral data of the column eluent was acquired between 200-400 nm (12 nm bandwidth per channel) at a sampling frequency of 640 milliseconds. Spectra were referenced against a signal at 550 nm.
The solution was loaded onto a Mono Q HR 16/10 Column (Pharmacia LKB Biotechnology, Uppsala, Sweden). The column was washed with 25 mM MOPS buffer (pH 6.9), and the protein was eluted with a 0-0.5 M KCl gradient. Protein eluting from the column was monitored at 280 nm by using a Pharmacia U.V. protein detector. Pooled fractions containing the major peak were dialyzed overnight against 1 liter 25 mM MOPS buffer (pH 6.9). The dialyzed material was assayed for atrazine degradation ability by using HPLC analysis (see above) and analyzed for purity by sodium dodecyl sulfate (SDS) polyacrylamide gel electrophoreses (Laemlli).
The AtzA protein was examined for its ability to degrade various triazine compounds in vitro.

CCNc1nc(Cl)nc(NC(C)C)n1 = experiment: purified protein, by the assay type; conditions: other: purified AtzA 50 μg/ml, 25 mM MOPS pH 6.9, room temperature
Procedure: (§2) Enzyme Kinetics. […] The reactions were stopped by boiling the reaction tubes at specific times, the addition of 500 μl acetonitrile and rapid freezing at −80° C. Thawed samples were centrifuged at 14,000 rpm for 10 minutes, the supernatants were filtered through a 0.2 μM filter, and placed into crimp-seal HPLC vials. HPLC analysis was done as described above.

[3] = system: B. japonicum strain USDA 123 (pMD1); experiment: Atrazine degradation by Bradyrhizobium japonicum carrying pMD1 (plate clearing, HPLC); assay type: cell-based
Procedure: Atrazine degradation gene expressed in Bradyrhizobium japonicum. […] The pMD1 was transferred from E. coli DH5α (pMD1) to B. japonicum strains USDA 123 by conjugation. This was done by using helper plasmid pRK2073 and the triparental mating procedure of Leong et al., J. Bio. Chem, 257, 8724-8730 (1982). This was done using a modified patch mating technique. Equal quantities of E. coli DH5α (pMD1), […] and spread to the size of a nickel. The patch was incubated for 4 days at 28° C. and the resulting bacterial growth was removed from the pate, serially diluted in 0.85% NaCl plus 0.01% tween 80, and spread onto the surface of minimal AG plates (Ag without yeast extract) containing 60 μg/ml tetracycline. Plates were incubated for 2 weeks at 28° C. […] Atrazine degradation was verified by HPLC analysis. The identity of transconjugants was verified by using strain specific fluorescent antibodies prepared according to Schmidt et al., J. Bacteriol., 95, 1987-1992 (1968).

[4] = target: T2, atrazine chlorohydrolase (AtzA); experiment: Enzyme kinetics of purified AtzA (HPLC)
Procedure: as §2

[5] = system: E. coli DH5α (pMD1 or pMD2); experiment: Effect of simple nitrogen sources on atrazine degradation (plate clearing); assay type: cell-based, Escherichia coli
Procedure: (§1) Analytical methods: plate assays, high performance liquid chromatography (HPLC), thin layer chromatography (TLC), and liquid-liquid partitioning analyses. Atrazine or hydroxyatrazine were incorporated in solid LB or minimal medium, as described in Mandelbaum et al., Appl. Environ. Microbiol., 61, 1451-1457 (1995), at a final concentration of 500 μg/ml to produce an opaque suspension of small particles in the clear agar. The degradation of atrazine or hydroxyatrazine by wild-type and recombinant bacteria was indicated by a zone of clearing surrounding colonies.

[6] = system: Pseudomonas species strain ADP; experiment: as above; assay type: cell-based; conditions: solid media with 500 ppm atrazine, 2 weeks of incubation at 28° C. or 37° C.
Procedure: as §1

[7] = protein concentration of 50 mg/liter

T2 sequence (P72156 whole entry, the tested form may be a part): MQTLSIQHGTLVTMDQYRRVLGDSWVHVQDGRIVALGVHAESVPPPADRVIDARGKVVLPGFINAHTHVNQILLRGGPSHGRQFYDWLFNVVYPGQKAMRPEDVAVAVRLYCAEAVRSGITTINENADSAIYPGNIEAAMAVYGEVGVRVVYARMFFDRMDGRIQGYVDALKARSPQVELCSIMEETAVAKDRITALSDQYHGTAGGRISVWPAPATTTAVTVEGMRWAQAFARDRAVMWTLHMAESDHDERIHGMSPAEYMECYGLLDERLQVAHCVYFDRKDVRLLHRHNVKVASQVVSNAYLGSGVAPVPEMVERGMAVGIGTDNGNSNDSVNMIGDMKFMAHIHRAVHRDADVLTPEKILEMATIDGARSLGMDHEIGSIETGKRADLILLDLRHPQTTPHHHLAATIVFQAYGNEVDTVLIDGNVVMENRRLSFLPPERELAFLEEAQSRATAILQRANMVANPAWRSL

Question: Which “Degradation of substrate by TrzA” value [1] does the source give for CCNc1nc(Cl)nc(NCC)n1 [Simazine, 2-chloro-4,6-diethylamino-s-triazine] here?
Answer: does not degrade

Question: Which “Degradation of substrate by AtzA” value [2] does the source give for Nc1nc(N)nc(N)n1 [Melamine, 2,4,6-triamino-s-triazine] here?
Answer: not substrates

Question: And the “Degradation of substrate by AtzA” value ([2]; listed as melamine)?
Answer: does not degrade

Question: With “atrazine chlorohydrolase (AtzA) (Pseudomonas sp. ADP)” as the molecule, how does the Km (CCNc1nc(Cl)nc(NC(C)C)n1) read?
Answer: 125 µM

Question: Which results are given for CCNc1nc(N)nc(Cl)n1 [Desisopropylatrazine, 2-chloro-4-ethylamino-6-amino-s-triazine]?
Answer: Degradation of substrate by TrzA [1]: ability to dechlorinate; Km ([1]; reported for the related triazine hydrolase TrzA): 82 µM; Degradation of substrate by AtzA ([2]; listed as deisopropylatrazine): ability to dechlorinate

Question: Which “Degradation of substrate by TrzA” value [1] does the source give for CCNc1nc(Cl)nc(NC(C)C)n1 [Atrazine, 2-chloro-4-ethylamino-6-isopropylamino-1,3,5-s-triazine] here?
Answer: does not degrade

Question: What about the “time to clear atrazine on plates” value ([3]; AG media plates containing up to 500 ppm atrazine) of the same molecule?
Answer: 10 days

Question: And the “atrazine in overnight culture broth by HPLC” value ([3]; supplied atrazine 33 ppm)?
Answer: no atrazine detectable

Question: What about the “time to degrade about 100 μM of atrazine to about 1 μM” value [4, 7] of the same molecule?
Answer: about 1.35 hours

Question: What about the “time to degrade about 30 ppm of atrazine to about 3 ppb” value [4, 7] of the same molecule?
Answer: about 2.6 hours

Question: And the Km ([4]; read-out: Km of AtzA for atrazine, purified AtzA 50 μg/ml, 25 mM MOPS pH 6.9, room temperature)?
Answer: 125 µM

Question: For Cl.N [ammonium chloride], which “tolerance for ammonium chloride with concomitant atrazine degradation, relative to wild-type” value ([5]; E. coli DH5α (pMD1 or pMD2) vs Pseudomonas strain ADP) is on record?
Answer: 40-80 fold

Question: What about the “ammonium chloride concentration in whose presence atrazine degradation (clearing) was observed” value ([5]; solid media with 500 ppm atrazine) of the same molecule?
Answer: ≤ 48 mM

Question: And the “ammonium chloride concentration sufficient to inhibit visible clearing of atrazine” value [6]?
Answer: 0.6 to 1.2 mM

Question: Which “Degradation of substrate by AtzA” value [2] does the source give for CCNc1nc(Cl)nc(NC(C)(C)C)n1 [Tertbutylazine, 2-chloro-4-ethylamino-6-terbutylamino-s-triazine] here?
Answer: not substrates
